The values below come from patent publication US8449794B2, “Non-resonant two-photon absorption recording material and non-resonant two-photon absorption compound” (FUJIFILM Corporation, priority 2010, dated 2013).

Molecules are shown by their SMILES. Where two headings read alike, the source gives them in different places.

The conditions of series [1]: measurement wavelength vicinity of 525 nm; value in document; cited from earlier work.
A short description of series [2]: Two-photon absorption cross-sectional area by Z scanning method. In kind it is physicochemical. Conditions: measurement wavelength 550 nm; chloroform solution 1×10^−3. Here is the method:
Measurement of a two-photon absorption cross-sectional area of the synthesized compound is carried out by Z scanning method described in Mansoor Sheik-Baha et al., IEEE, Journal of Quantum Electronics, 1990, 26, 760. Z scanning method is a widely used method as the measuring method of a non-linear optical constant. In the vicinity of the focus of converged laser beam, a measuring sample is moved along the beam and the change of the quantity of transmitting light is recorded. Since the power density of incident light changes depending upon the position of a sample, the quantity of transmitting light attenuates in the vicinity of the focus in the case where non-linear absorption is present. A two-photon absorption cross-sectional area is computed by fitting the change of the quantity of transmitting light to the theoretical curve predictable from the intensity of incident light, the size of converging spot of light, the thickness of a sample and the concentration of a sample. As the light sources for the measurement of a two-photon absorption cross-sectional area, a Ti-sapphire pulse laser (pulse duration: 100 fs, repetition: 80 MHz, average output: 1 W, peak power: 100 kW) obtained by combining a […] amplifier and light parametric amplifier is used. […]

Series [3] can be described thus: Evaluation of solubility of two-photon absorption compound. The series is classed as physicochemical. Conditions: coating solvent dichloromethane. The protocol:
The solubility of the compounds of the invention D-11, D-41 and D-405 and comparative compound R-2 in dichloromethane and 2-butanone is evaluated.

With `CCCCCCC(CCCC)Oc1ccc(-c2ccc(-c3ccc(-c4ccc(OC(CCCC)CCCCCC)cc4)cc3)cc2)cc1` (stereo not drawn) [Compound R-1], the “Two-Photon Absorption Cross-Sectional Area” value in series [1] is given as 15 GM. For the compound `N#Cc1ccc(-c2ccc(-c3ccc(-c4ccc(C(=O)c5ccccc5)cc4)cc3)cc2)cc1` [Compound R-2], the “Two-Photon Absorption Cross-Sectional Area” value in series [2] was determined as 200 GM. Further, the “Solubility (in words)” value in series [3] is recorded as “small in solubility”.
